Results taken from ChEMBL document CHEMBL3871297, “Squarate-based carbocyclic nucleosides: Syntheses, computational analyses and anticancer/antiviral evaluation” (2017).

What was measured:
Format in all cases: functional
[1] = Cytotoxicity against human SF539 cells assessed as cell growth at 10 uM after 2 days by SRB assay relative to control; settings: SF-539, 48 h, read-out: Activity
[2] = Cytotoxicity against human SF295 cells assessed as cell growth at 10 uM after 2 days by SRB assay relative to control; settings: SF-295, 48 h, read-out: Activity
[3] = Cytotoxicity against human SF268 cells assessed as cell growth at 10 uM after 2 days by SRB assay relative to control; settings: SF-268, 48 h, read-out: Activity
[4] = Cytotoxicity against human UACC62 cells assessed as cell growth at 10 uM after 2 days by SRB assay relative to control; settings: UACC-62, 48 h, read-out: Activity
[5] = Cytotoxicity against human SK-MEL-5 cells assessed as cell growth at 10 uM after 2 days by SRB assay relative to control; settings: SK-MEL-5, 48 h, read-out: Activity
[6] = Cytotoxicity against human SK-MEL-28 cells assessed as cell growth at 10 uM after 2 days by SRB assay relative to control; settings: SK-MEL-28, 48 h, read-out: Activity
[7] = Cytotoxicity against human MALME-3M cells assessed as cell growth at 10 uM after 2 days by SRB assay relative to control; settings: 48 h, read-out: Activity
[8] = Cytotoxicity against human M14 cells assessed as cell growth at 10 uM after 2 days by SRB assay relative to control; settings: M14, 48 h, read-out: Activity
[9] = Cytotoxicity against human UO31 cells assessed as cell growth at 10 uM after 2 days by SRB assay relative to control; settings: UO-31, 48 h, read-out: Activity
[10] = Cytotoxicity against human TK10 cells assessed as cell growth at 10 uM after 2 days by SRB assay relative to control; settings: TK-10, 48 h, read-out: Activity
[11] = Cytotoxicity against human SN12C cells assessed as cell growth at 10 uM after 2 days by SRB assay relative to control; settings: 48 h, read-out: Activity
[12] = Cytotoxicity against human RXF393 cells assessed as cell growth at 10 uM after 2 days by SRB assay relative to control; settings: RXF 393, 48 h, read-out: Activity
[13] = Cytotoxicity against human ACHN cells assessed as cell growth at 10 uM after 2 days by SRB assay relative to control; settings: 48 h, read-out: Activity
[14] = Cytotoxicity against human K562 cells assessed as cell growth at 10 uM after 2 days by SRB assay relative to control; settings: K562, 48 h, read-out: Activity
[15] = Cytotoxicity against human HL-60(TB) cells assessed as cell growth at 10 uM after 2 days by SRB assay relative to control; settings: HL-60, 48 h, read-out: Activity
[16] = Cytotoxicity against human CCRF-CEM cells assessed as cell growth at 10 uM after 2 days by SRB assay relative to control; settings: 48 h, read-out: Activity
[17] = Cytotoxicity against human SKOV3 cells assessed as cell growth at 10 uM after 2 days by SRB assay relative to control; settings: SK-OV-3, 48 h, read-out: Activity
[18] = Cytotoxicity against human OVCAR8 cells assessed as cell growth at 10 uM after 2 days by SRB assay relative to control; settings: OVCAR-8, 48 h, read-out: Activity
[19] = Cytotoxicity against human OVCAR4 cells assessed as cell growth at 10 uM after 2 days by SRB assay relative to control; settings: OVCAR-4, 48 h, read-out: Activity
[20] = Cytotoxicity against human IGROV1 cells assessed as cell growth at 10 uM after 2 days by SRB assay relative to control; settings: IGROV-1, 48 h, read-out: Activity
[21] = Cytotoxicity against human T47D cells assessed as cell growth at 10 uM after 2 days by SRB assay relative to control; settings: 48 h, read-out: Activity
[22] = Cytotoxicity against human NCI/ADR-RES cells assessed as cell growth at 10 uM after 2 days by SRB assay relative to control; settings: 48 h, read-out: Activity
[23] = Cytotoxicity against human MDA-MB-435 cells assessed as cell growth at 10 uM after 2 days by SRB assay relative to control; settings: MDA-MB-435, 48 h, read-out: Activity
[24] = Cytotoxicity against human SW620 cells assessed as cell growth at 10 uM after 2 days by SRB assay relative to control; settings: SW-620, 48 h, read-out: Activity
[25] = Cytotoxicity against human KM12 cells assessed as cell growth at 10 uM after 2 days by SRB assay relative to control; settings: KM12, 48 h, read-out: Activity
[26] = Cytotoxicity against human HT-29 cells assessed as cell growth at 10 uM after 2 days by SRB assay relative to control; settings: HT-29, 48 h, read-out: Activity
[27] = Cytotoxicity against human HCT15 cells assessed as cell growth at 10 uM after 2 days by SRB assay relative to control; settings: HCT-15, 48 h, read-out: Activity
[28] = Cytotoxicity against human HCT116 cells assessed as cell growth at 10 uM after 2 days by SRB assay relative to control; settings: HCT-116, 48 h, read-out: Activity
[29] = Cytotoxicity against human NCI-H522 cells assessed as cell growth at 10 uM after 2 days by SRB assay relative to control; settings: NCI-H522, 48 h, read-out: Activity
[30] = Cytotoxicity against human NCI-H460 cells assessed as cell growth at 10 uM after 2 days by SRB assay relative to control; settings: NCI-H460, 48 h, read-out: Activity
[31] = Cytotoxicity against human NCI-H322M cells assessed as cell growth at 10 uM after 2 days by SRB assay relative to control; settings: 48 h, read-out: Activity
[32] = Cytotoxicity against human NCI-H23 cells assessed as cell growth at 10 uM after 2 days by SRB assay relative to control; settings: NCI-H23, 48 h, read-out: Activity
[33] = Cytotoxicity against human NCI-H226 cells assessed as cell growth at 10 uM after 2 days by SRB assay relative to control; settings: NCI-H226, 48 h, read-out: Activity
[34] = Cytotoxicity against human HOP62 cells assessed as cell growth at 10 uM after 2 days by SRB assay relative to control; settings: HOP-62, 48 h, read-out: Activity
[35] = Cytotoxicity against human EKVX cells assessed as cell growth at 10 uM after 2 days by SRB assay relative to control; settings: 48 h, read-out: Activity
[36] = Cytotoxicity against human SNB19 cells assessed as cell growth at 10 uM after 2 days by SRB assay relative to control; settings: SNB-19, 48 h, read-out: Activity
[37] = Cytotoxicity against human SNB75 cells assessed as cell growth at 10 uM after 2 days by SRB assay relative to control; settings: SNB-75, 48 h, read-out: Activity
[38] = Cytotoxicity against human U251 cells assessed as cell growth at 10 uM after 2 days by SRB assay relative to control; settings: U-251, 48 h, read-out: Activity

O=c1c(O)c(N[C@H]2C=C[C@@H](CO)C2)c1=O gave a growth at 10 µM [1] of 114%, a growth at 10 µM [2] of 73.5% and a growth at 10 µM [3] of 117%. It also gave a growth at 10 µM [4] of 118%, a growth at 10 µM [5] of 106% and a growth at 10 µM [6] of 140%. It also gave a growth at 10 µM [7] of 115%, a growth at 10 µM [8] of 111% and a growth at 10 µM [9] of 103%. For the same compound, the growth at 10 µM [10] was 132%, the growth at 10 µM [11] was 120% and the growth at 10 µM [12] was 166%. The growth at 10 µM [13] was 108%, the growth at 10 µM [14] was 104% and the growth at 10 µM [15] was 100%. It also gave a growth at 10 µM [16] of 116%, a growth at 10 µM [17] of 109% and a growth at 10 µM [18] of 107%. The growth at 10 µM [19] was 102%, the growth at 10 µM [20] was 111% and the growth at 10 µM [21] was 107%. For the same compound, the growth at 10 µM [22] was 116%, the growth at 10 µM [23] was 120% and the growth at 10 µM [24] was 112%. The growth at 10 µM [25] was 116%, the growth at 10 µM [26] was 105% and the growth at 10 µM [27] was 134%. The growth at 10 µM [28] was 108%, the growth at 10 µM [29] was 91.6% and the growth at 10 µM [30] was 114%. The growth at 10 µM [31] was 120%, the growth at 10 µM [32] was 107% and the growth at 10 µM [33] was 157%. For the same compound, the growth at 10 µM [34] was 101%, the growth at 10 µM [35] was 129% and the growth at 10 µM [36] was 105%. For the same compound, the growth at 10 µM [37] was 103% and the growth at 10 µM [38] was 112%.
